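Exposure lasted 48 hours, with cells grown in 96-well plates and compounds tested at five concentrations. The concentration for 50% growth inhibition is given as GI50.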 The source made the active and inactive calls. Cut-off read from the data, not from the text of the source: active = GI50 up to about 1.1 µM and inactive = higher.
What was measured:
Assay in all cases: DTP human tumour cell line panel, 48 h
786-0 = test system: 786-0
A498 = test system: A498
A549 = test system: A549
ACHN = test system: ACHN
CAKI-1 = test system: CAKI-1
CCRF-CEM = test system: CCRF-CEM
COLO 205 = test system: COLO 205
DLD-1 = test system: DLD-1
DMS-114 = test system: DMS-114
DMS-273 = test system: DMS-273
EKVX = test system: EKVX
HCC 2998 = test system: HCC 2998
HCT-116 = test system: HCT-116
HCT-15 = test system: HCT-15
HOP-18 = test system: HOP-18
HOP-62 = test system: HOP-62
HOP-92 = test system: HOP-92
HT-29 = test system: HT-29
IGROV-1 = test system: IGROV-1
K562 = test system: K562
KM-20L2 = test system: KM-20L2
KM12 = test system: KM12
LOX IMVI = test system: LOX IMVI
LXFL 529 = test system: LXFL 529
M14 = test system: M14
M19-MEL = test system: M19-MEL
MOLT-4 = test system: MOLT-4
Malme-3M = test system: Malme-3M
NCI-H23 = test system: NCI-H23
NCI-H460 = test system: NCI-H460
NCI-H522 = test system: NCI-H522
OVCAR-3 = test system: OVCAR-3
OVCAR-4 = test system: OVCAR-4
OVCAR-5 = test system: OVCAR-5
OVCAR-8 = test system: OVCAR-8
RPMI-8226 = test system: RPMI-8226
RXF 393 = test system: RXF 393
SF-268 = test system: SF-268
SF-295 = test system: SF-295
SF-539 = test system: SF-539
SK-MEL-28 = test system: SK-MEL-28
SK-MEL-2 = test system: SK-MEL-2
SK-MEL-5 = test system: SK-MEL-5
SK-OV-3 = test system: SK-OV-3
SN12C = test system: SN12C
SNB-19 = test system: SNB-19
SNB-75 = test system: SNB-75
SNB-78 = test system: SNB-78
SW-620 = test system: SW-620
TK-10 = test system: TK-10
U-251 = test system: U-251
UACC-257 = test system: UACC-257
UACC-62 = test system: UACC-62
UO-31 = test system: UO-31
XF498 = test system: XF498
HL-60 = test system: HL-60
NCI-H226 = test system: NCI-H226
RXF 631 = test system: RXF 631

With `Cc1cc(C)nc(NS(=O)(=O)c2ccc(NC(=O)c3cccc4c(Nc5ccc(S(=O)(=O)Nc6nc(C)cc(C)n6)cc5)c5ccc(Cl)cc5nc34)cc2)n1` the GI50 (786-0) was 28.4 µM (inactive), the GI50 (A498) was 45 µM (inactive) and the GI50 (A549) was 41.1 µM (inactive). For the same compound, the GI50 (ACHN) was 27.3 µM (inactive), the GI50 (CAKI-1) was 19.5 µM (inactive) and the GI50 (CCRF-CEM) was 27.5 µM (inactive). The GI50 (COLO 205) was 33.8 µM (inactive), the GI50 (DLD-1) was 33.7 µM (inactive) and the GI50 (DMS-114) was 25.1 µM (inactive). The GI50 (DMS-273) was 77.6 µM (inactive), the GI50 (EKVX) was 29.5 µM (inactive) and the GI50 (HCC 2998) was 36.6 µM (inactive). The GI50 (HCT-116) was 28.1 µM (inactive), the GI50 (HCT-15) was 75.5 µM and the GI50 (HOP-18) was > 100 µM (inactive). For the same compound, the GI50 (HOP-62) was 24.4 µM (inactive), the GI50 (HOP-92) was 28 µM (inactive) and the GI50 (HT-29) was 40.6 µM (inactive). For the same compound, the GI50 (IGROV-1) was 46.2 µM (inactive), the GI50 (K562) was 26.1 µM (inactive) and the GI50 (KM-20L2) was 40.5 µM (inactive). The GI50 (KM12) was 33.1 µM (inactive), the GI50 (LOX IMVI) was 29.2 µM (inactive) and the GI50 (LXFL 529) was 33 µM (inactive). The GI50 (M14) was 37.4 µM (inactive), the GI50 (M19-MEL) was 37.8 µM (inactive) and the GI50 (MOLT-4) was 33.3 µM (inactive). For the same compound, the GI50 (Malme-3M) was 16.4 µM (inactive), the GI50 (NCI-H23) was 39.4 µM (inactive) and the GI50 (NCI-H460) was 37 µM (inactive). For the same compound, the GI50 (NCI-H522) was 15.6 µM (inactive), the GI50 (OVCAR-3) was 17.5 µM (inactive) and the GI50 (OVCAR-4) was 35.6 µM (inactive). For the same compound, the GI50 (OVCAR-5) was > 100 µM (inactive), the GI50 (OVCAR-8) was 34.7 µM (inactive) and the GI50 (RPMI-8226) was 28.2 µM (inactive). The GI50 (RXF 393) was 78.3 µM (inactive), the GI50 (SF-268) was 28.6 µM (inactive) and the GI50 (SF-295) was 38 µM (inactive). For the same compound, the GI50 (SF-539) was 37.8 µM (inactive), the GI50 (SK-MEL-28) was 29.6 µM (inactive) and the GI50 (SK-MEL-2) was 34 µM (inactive). The GI50 (SK-MEL-5) was 20.1 µM (inactive), the GI50 (SK-OV-3) was 26.7 µM (inactive) and the GI50 (SN12C) was 35.5 µM (inactive). The GI50 (SNB-19) was 28.1 µM (inactive), the GI50 (SNB-75) was 17.1 µM (inactive) and the GI50 (SNB-78) was 39.4 µM (inactive). For the same compound, the GI50 (SW-620) was 54.1 µM (inactive), the GI50 (TK-10) was 30.8 µM (inactive) and the GI50 (U-251) was 27.5 µM (inactive). The GI50 (UACC-257) was 20.8 µM (inactive), the GI50 (UACC-62) was 23.1 µM (inactive) and the GI50 (UO-31) was 13.4 µM (inactive). For the same compound, the GI50 (XF498) was 23.1 µM (inactive).
For `Sc1nnc(C(c2ccccc2)c2ccccc2)[nH]1`, the GI50 (786-0) was > 100 µM (inactive), the GI50 (A498) was > 100 µM (inactive) and the GI50 (A549) was > 100 µM (inactive). For the same compound, the GI50 (ACHN) was > 100 µM (inactive), the GI50 (CCRF-CEM) was > 100 µM (inactive) and the GI50 (COLO 205) was > 100 µM (inactive). For the same compound, the GI50 (DLD-1) was > 100 µM (inactive), the GI50 (DMS-114) was > 100 µM (inactive) and the GI50 (DMS-273) was > 100 µM (inactive). For the same compound, the GI50 (EKVX) was > 100 µM (inactive), the GI50 (HCC 2998) was > 100 µM (inactive) and the GI50 (HCT-116) was > 100 µM (inactive). The GI50 (HCT-15) was greater than 100 µM, the GI50 (HL-60) was > 100 µM (inactive) and the GI50 (HOP-62) was > 100 µM (inactive). For the same compound, the GI50 (HT-29) was > 100 µM (inactive), the GI50 (IGROV-1) was > 100 µM (inactive) and the GI50 (K562) was > 100 µM (inactive). For the same compound, the GI50 (KM-20L2) was > 100 µM (inactive), the GI50 (KM12) was > 100 µM (inactive) and the GI50 (LOX IMVI) was > 100 µM (inactive). The GI50 (M19-MEL) was > 100 µM (inactive), the GI50 (MOLT-4) was > 100 µM (inactive) and the GI50 (Malme-3M) was > 100 µM (inactive). For the same compound, the GI50 (NCI-H226) was > 100 µM (inactive), the GI50 (NCI-H23) was > 100 µM (inactive) and the GI50 (NCI-H460) was > 100 µM (inactive). The GI50 (NCI-H522) was 53.2 µM (inactive), the GI50 (OVCAR-3) was > 100 µM (inactive) and the GI50 (OVCAR-5) was > 100 µM (inactive). For the same compound, the GI50 (OVCAR-8) was > 100 µM (inactive), the GI50 (RXF 393) was > 100 µM (inactive) and the GI50 (RXF 631) was > 100 µM (inactive). For the same compound, the GI50 (SF-268) was > 100 µM (inactive), the GI50 (SF-295) was > 100 µM (inactive) and the GI50 (SF-539) was > 100 µM (inactive). For the same compound, the GI50 (SK-MEL-28) was > 100 µM (inactive), the GI50 (SK-MEL-2) was > 100 µM (inactive) and the GI50 (SK-MEL-5) was > 100 µM (inactive). The GI50 (SK-OV-3) was > 100 µM (inactive), the GI50 (SN12C) was > 100 µM (inactive) and the GI50 (SNB-19) was > 100 µM (inactive). The GI50 (SW-620) was > 100 µM (inactive), the GI50 (TK-10) was > 100 µM (inactive) and the GI50 (U-251) was > 100 µM (inactive). For the same compound, the GI50 (UACC-257) was > 100 µM (inactive), the GI50 (UACC-62) was > 100 µM (inactive) and the GI50 (UO-31) was > 100 µM (inactive). For the same compound, the GI50 (XF498) was > 100 µM (inactive).
For `CCOC(=O)C1N(S(=O)(=O)c2ccc(C)cc2)CCC12C(c1ccc(OC)cc1)NC1CCCCC12` (stereo not drawn), the GI50 (786-0) was 68.7 µM (inactive), the GI50 (A498) was > 100 µM (inactive) and the GI50 (A549) was > 100 µM (inactive). For the same compound, the GI50 (ACHN) was > 100 µM (inactive), the GI50 (CAKI-1) was > 100 µM (inactive) and the GI50 (CCRF-CEM) was > 100 µM (inactive). The GI50 (COLO 205) was > 100 µM (inactive), the GI50 (DLD-1) was > 100 µM (inactive) and the GI50 (DMS-114) was > 100 µM (inactive). For the same compound, the GI50 (DMS-273) was > 100 µM (inactive), the GI50 (EKVX) was > 100 µM (inactive) and the GI50 (HCC 2998) was > 100 µM (inactive). For the same compound, the GI50 (HCT-116) was > 100 µM (inactive), the GI50 (HCT-15) was greater than 100 µM and the GI50 (HL-60) was > 100 µM (inactive). For the same compound, the GI50 (HOP-62) was 98.6 µM (inactive), the GI50 (HOP-92) was 22.9 µM (inactive) and the GI50 (HT-29) was > 100 µM (inactive). For the same compound, the GI50 (IGROV-1) was > 100 µM (inactive), the GI50 (K562) was > 100 µM (inactive) and the GI50 (KM-20L2) was > 100 µM (inactive). For the same compound, the GI50 (KM12) was > 100 µM (inactive), the GI50 (LOX IMVI) was > 100 µM (inactive) and the GI50 (LXFL 529) was > 100 µM (inactive). The GI50 (M14) was > 100 µM (inactive), the GI50 (M19-MEL) was > 100 µM (inactive) and the GI50 (Malme-3M) was 67.3 µM (inactive). The GI50 (NCI-H226) was > 100 µM (inactive), the GI50 (NCI-H23) was > 100 µM (inactive) and the GI50 (NCI-H460) was > 100 µM (inactive). The GI50 (NCI-H522) was > 100 µM (inactive), the GI50 (OVCAR-3) was > 100 µM (inactive) and the GI50 (OVCAR-4) was 27.2 µM (inactive). For the same compound, the GI50 (OVCAR-5) was > 100 µM (inactive), the GI50 (OVCAR-8) was > 100 µM (inactive) and the GI50 (RPMI-8226) was > 100 µM (inactive). For the same compound, the GI50 (RXF 393) was 44.4 µM (inactive), the GI50 (RXF 631) was 97.1 µM (inactive) and the GI50 (SF-268) was > 100 µM (inactive). For the same compound, the GI50 (SF-295) was 77.6 µM (inactive), the GI50 (SF-539) was 55.7 µM (inactive) and the GI50 (SK-MEL-28) was > 100 µM (inactive). For the same compound, the GI50 (SK-MEL-5) was > 100 µM (inactive), the GI50 (SK-OV-3) was > 100 µM (inactive) and the GI50 (SN12C) was > 100 µM (inactive). For the same compound, the GI50 (SNB-19) was > 100 µM (inactive), the GI50 (SNB-75) was 28.9 µM (inactive) and the GI50 (SNB-78) was > 100 µM (inactive). The GI50 (SW-620) was > 100 µM (inactive), the GI50 (TK-10) was > 100 µM (inactive) and the GI50 (U-251) was 70.8 µM (inactive). The GI50 (UACC-257) was > 100 µM (inactive), the GI50 (UACC-62) was > 100 µM (inactive) and the GI50 (UO-31) was > 100 µM (inactive).

Reference: ChEMBL document CHEMBL1201862, “PubChem BioAssay data set” (2004)
